According to PMC5877436, “A first-in-human phase I study to determine the maximum tolerated dose of the oral Src/ABL inhibitor AZD0424” (British Journal of Cancer, 2018):
“Also recorded” adds a separate entry of the source. Where two headings read alike, the source gives them in different places.

Assays:
paxillin = conditions: in vitro, pre-clinical; cited from earlier work
[1] = human, in vivo
Method: (§1) Treatment cycles consisted of 28 days of continuous AZD0424 administration, and treatment was to be continued until disease progression, patient withdrawal or unacceptable toxicity.
(§2) All patients receiving at least one dose of AZD0424 were evaluable for safety and efficacy analyses. Safety and tolerability of AZD0424 were assessed according to NCI CTCAE version 4.02.

Lck = test system: Lck; parameters: method as in Cancer Research UK Centre for Drug Development, 2015; conditions: ref Cancer Research UK Centre for Drug Development, 2015; cited from earlier work
VEGFR-2 = conditions: ref Cancer Research UK Centre for Drug Development, 2015; cited from earlier work
[2] = test system: human Calu-6 lung tumour xenografts; conditions: rats, pre-clinical; cited from earlier work
[3] = test system: mouse fibroblasts engineered to over-express activated Src kinase (c-SRC 3T3); conditions: in vitro, pre-clinical; cited from earlier work
[4] = Phase Ia dose escalation: safety and tolerability (NCI CTCAE v4.02, DLT, MTD)
Method: as §1, §2

clinical = conditions: human, plasma, oral
Method: (§3) Patients were fasted for 3 h prior to administration of AZD0424. Blood samples for analysis of plasma levels of AZD0424 were taken at the following time points: Cycle 1: Pre-dose and at 0.5, 1, 2, 4, 6 and 10 h post-dose on Day 1, then at 24 and 48 h and pre-dose on Days 8, 15 and 22; Cycle 2 (Day 29): Pre-dose and at 0.5, 1, 2, 4, 6, 10, 24 and 48 h. For patients receiving twice-daily AZD0424, the timing of samples was in relation to the morning dose of the drug. Plasma was isolated from centrifuged blood samples and stored at −80 °C prior to quantification of AZD0424 by a validated high performance liquid chromatography method with mass spectrometric detection. Plasma concentration/time data were analysed using non-compartmental methods.

Yes = test system: Yes; parameters: method as in Cancer Research UK Centre for Drug Development, 2015; conditions: ref Cancer Research UK Centre for Drug Development, 2015; cited from earlier work
[5] = format: in vivo
Src [6] = test system: Src; parameters: method as in Cancer Research UK Centre for Drug Development, 2015; conditions: ref Cancer Research UK Centre for Drug Development, 2015; cited from earlier work
human tumour cells = conditions: in vitro, pre-clinical; cited from earlier work
[7] = dog, pre-clinical; cited from earlier work
ABL1 = test system: ABL1; parameters: method as in Cancer Research UK Centre for Drug Development, 2015; conditions: ref Cancer Research UK Centre for Drug Development, 2015; cited from earlier work
[8] = test system: c-Src 3T mouse xenografts; conditions: immunocompromised rats, subcutaneous, pre-clinical; cited from earlier work
[9] = rat, pre-clinical; cited from earlier work
[10] = Plasma pharmacokinetics in patients;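 further: patient plasma drug levels measured by validated HPLC with mass spectrometric detection after a 3 h fast, PK parameters from non-compartmental analysis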
Method: as §3

[11] = test system: non-engineered human tumour cell lines; conditions: in vitro, diverse panel, pre-clinical; cited from earlier work
advanced solid tumours = assay: Disease response by RECIST 1.1; format: in vivo, human
Method: All patients receiving at least one dose of AZD0424 were evaluable for safety and efficacy analyses. Safety and tolerability of AZD0424 were assessed according to NCI CTCAE version 4.02. Patients who were withdrawn from treatment, or received less than 75% of the planned doses of AZD0424 during the first cycle, for reasons other than toxicity were not evaluable for dose review decisions and could be replaced. Disease response was assessed according to RECIST 1.1. For stable disease (SD), follow-up measurements had to meet the SD criteria at least once at least 6 weeks after the first dose of AZD0424.

Src [12] = assay: Urinary NTX and serum CTX levels as markers of Src inhibition; format: in vivo, human
Method: Src inhibition is known to reduce bone resorption, resulting in a decrease in urinary N-terminal cross-linking telopeptides of type I collagen (NTX) and serum C-terminal cross-linking telopeptides of type I collagen (CTX) ([Hannon et al, 2012]). Measurements of urinary NTX and serum CTX levels were performed before the first administration of AZD0424 and then weekly, at the same time of day, for up to 6 weeks following first administration as markers of Src inhibition. Samples were analysed at the Mellanby Centre for Bone Research in Sheffield using the Cobas e411 automated immunoassay (Roche Diagnostics, Mannheim, Germany) for serum CTX (ng ml^−1), and the Ortho Clinical Diagnostics (High Wycombe, UK) automated immunoassay for urine NTX. Urinary NTX measurements were reported as a ratio to urinary creatinine (nmol bone collagen equivalent (BCE)/mmol creatinine). Tumour biopsies for measurement of tumour biomarkers (p-Src, Ki67, p-PAX, and p-FAK) by immunohistochemical staining were optional.

[13] = test system: human umbilical vein endothelial cell cultures; conditions: in vitro, growth factor stimulated, pre-clinical; cited from earlier work
[14] = test system: C-terminal Src tyrosine kinase (CSK); conditions: cited from earlier work
breast cancer cell = test system: breast cancer cell; parameters: method as in Srinivasan and Plattner, 2006; conditions: ref Srinivasan and Plattner, 2006; cited from earlier work
[15] = parameters: method as in Baselga et al, 2010; conditions: ref Baselga et al, 2010; cited from earlier work
[16] = parameters: method as in Reddy et al, 2015; conditions: colorectal cancer patients; ref Reddy et al, 2015; cited from earlier work

In the case of `CC(=O)N1CCN(CCOc2cc(OC(C)C)c3c(Nc4c(Cl)cnc5c4OCO5)ncnc3c2)CC1` [AZD0424, 7-[2-(4-Acetylpiperazin-1-yl)ethoxy]-N-(6-chloro[1,3]dioxolo[4,5-b]pyridin-7-yl)-5-isopropoxyquinazolin-4-amine], the “inhibition of phosphorylation of paxillin” value (paxillin) is given as “evidence of inhibition of phosphorylation”, the “Alopecia, treatment-related AE, All grades patients” value [1] is given as 17 (41) n (%) and the “Alopecia, treatment-related AE, Grade 3–5 patients” value [1] is given as 0 n (%). For the same compound, the “Anaemia, treatment-related AE, All grades patients” value [1] was 7 (17) n (%), the “Anaemia, treatment-related AE, Grade 3–5 patients” value [1] was 3 (7) n (%) and the “Anorexia, treatment-related AE, All grades patients” value [1] was 19 (46) n (%). The “Anorexia, treatment-related AE, Grade 3–5 patients” value [1] was 1 (2) n (%), the “Aspartate aminotransferase increased, treatment-related AE, All grades patients” value [1] was 5 (12) n (%) and the “Aspartate aminotransferase increased, treatment-related AE, Grade 3–5 patients” value [1] was 0 n (%). For the same compound, the “Cmin at which Grade 2 or 3 hypophosphataemia appeared more frequent” value [1] was ≥ 200 nM, the “Constipation, treatment-related AE, All grades patients” value [1] was 6 (15) n (%) and the “Constipation, treatment-related AE, Grade 3–5 patients” value [1] was 1 (2) n (%). For the same compound, the “Diarrhoea, treatment-related AE, All grades patients” value [1] was 12 (29) n (%), the “Diarrhoea, treatment-related AE, Grade 3–5 patients” value [1] was 2 (5) n (%) and the “Dysgeusia, treatment-related AE, All grades patients” value [1] was 14 (34) n (%). For the same compound, the “Dysgeusia, treatment-related AE, Grade 3–5 patients” value [1] was 0 n (%), the “Fatigue, treatment-related AE, All grades patients” value [1] was 21(51) n (%) and the “Fatigue, treatment-related AE, Grade 3–5 patients” value [1] was 5 (12) n (%). For the same compound, the “Headache, treatment-related AE, All grades patients” value [1] was 5 (12) n (%), the “Headache, treatment-related AE, Grade 3–5 patients” value [1] was 0 n (%) and the “Hypophosphataemia, treatment-related AE, All grades patients” value [1] was 16 (39) n (%). For the same compound, the “Hypophosphataemia, treatment-related AE, Grade 3–5 patients” value [1] was 8 (20) n (%), the “Lymphocyte count decreased, treatment-related AE, All grades patients” value [1] was 10 (24) n (%) and the “Lymphocyte count decreased, treatment-related AE, Grade 3–5 patients” value [1] was 5 (12) n (%). The “Maculopapular rash, treatment-related AE, All grades patients” value [1] was 9 (22) n (%), the “Maculopapular rash, treatment-related AE, Grade 3–5 patients” value [1] was 2 (5) n (%) and the “Nausea, treatment-related AE, All grades patients” value [1] was 27 (66) n (%). For the same compound, the “Nausea, treatment-related AE, Grade 3–5 patients” value [1] was 2 (5) n (%), the “Pruritis, treatment-related AE, All grades patients” value [1] was 7 (17) n (%) and the “Pruritis, treatment-related AE, Grade 3–5 patients” value [1] was 0 n (%). The “Vomiting, treatment-related AE, All grades patients” value [1] was 13 (32) n (%), the “Vomiting, treatment-related AE, Grade 3–5 patients” value [1] was 1 (2) n (%) and the “dose above which treatment-related AE episodes and Grade 3-5 AEs increased markedly” value [1] was “above 60 mg per day”. The “nausea, fatigue, anorexia and alopecia, each: patients with treatment-related AE” value [1] was > 40%, the “patients with AE of Grade 3 hypophosphataemia related to the drug” value [1] was 19.5% and the “patients with at least one AE possibly, probably or highly probably related to AZD0424” value [1] was 92.7%. For the same compound, the “patients with at least one AZD0424-related event Grade 3-5 in severity” value [1] was 41.5%, the “patients with decline in lymphocyte count” value [1] was 68.3% and the “patients with dose delays and/or alterations during the study” value [1] was 63.4%. The “protocol-defined RP2D” value [1] was 80 mg, the “activity against Lck” value (Lck) was “additional activity” and the “selectivity for Src-Abl1 kinases vs VEGFR-2” value (VEGFR-2) was > 933 fold. The anti-tumour growth effect [2] was “moderate anti-tumour growth effects”, the inhibition of proliferation [3] was “potent inhibition of proliferation” and the “deaths due to pneumonia considered possibly related to AZD0424” value ([4]; all cohorts) was “One”. The “patients who died within 4 weeks of the last administration” value ([4]; all cohorts) was “Four”, the “maximum tolerated dose (MTD)” value ([4]; o.d., continuous oral dosing, 28-day cycles) was 120 mg and the Tmax (clinical) was < 2 h. For the same compound, the half-life (clinical) was 8.4 ± 2.8 h, the AUC(0-t) (clinical; 5 mg) was 0.624 µM·h and the Cmax (clinical; 5 mg) was 68.3 nM. It also gave a half-life (clinical; 5 mg) of 6.7 h, an AUC(0-t) (clinical; 10 mg) of 1.57 µM·h and a Cmax (clinical; 10 mg) of 210 nM. For the same compound, the half-life (clinical; 10 mg) was 6.3 h, the Cmax (clinical; 20 mg) was 590 ± 300 nM and the half-life (clinical; 20 mg) was 6.8 ± 2.6 h. It also gave an AUC(0-t) (clinical; 40 mg) of 6.81 ± 3.46 µM·h, a Cmax (clinical; 40 mg) of 715 ± 380 nM and a half-life (clinical; 40 mg) of 10.5 ± 0.8 h. For the same compound, the AUC(0-t) (clinical; 60 mg) was 9.88 ± 1.77 µM·h, the Cmax (clinical; 60 mg) was 1380 ± 215 nM and the half-life (clinical; 60 mg) was 8.2 ± 3.3 h. For the same compound, the AUC(0-t) (clinical; 80 mg) was 14.1 ± 5.12 µM·h, the Cmax (clinical; 80 mg) was 1670 ± 602 nM and the half-life (clinical; 80 mg) was 9.4 ± 5 h. It also gave an AUC(0-t) (clinical; 120 mg) of 24.9 ± 12 µM·h, a Cmax (clinical; 120 mg) of 2650 ± 923 nM and a half-life (clinical; 120 mg) of 7.8 ± 3.1 h. The AUC(0-t) (clinical; 150 mg) was 25.6 ± 4.15 µM·h, the Cmax (clinical; 150 mg) was 4110 ± 1540 nM and the half-life (clinical; 150 mg) was 7.8 ± 2.1 h. For the same compound, the “activity against Yes” value (Yes) was “additional activity”, the “one tenth of the maximum tolerated dose in rat scaled to man” value [5] was 17 mg and the IC50 (Src [6]) was ~4 nM. The inhibition of migration (human tumour cells) was “potent inhibition of migration”, the dose limiting toxicity [7] was “gastrointestinal toxicity being dose limiting” and the “hypotension and reflex tachycardia” value [7] was “Hypotension and reflex tachycardia were also observed”. The IC50 (ABL1) was ~4 nM, the “inhibition of tumour growth” value [8] was “profound, dose-dependent inhibition of tumour growth” and the dose limiting toxicity [9] was “gastrointestinal toxicity being dose limiting”. For the same compound, the “hypotension and reflex tachycardia” value [9] was “Hypotension and reflex tachycardia were also observed”, the “Cmax and AUC(0-24 h) compared with saracatinib” value ([10]; comparable doses, saracatinib data ref Baselga et al, 2010) was “much higher for AZD0424 than saracatinib” and the “dose dependence of Cmax and AUC” value ([10]; o.d. dosing 5-150 mg) was “increased linearly with dose; also recorded: Linear, dose-dependent increases; also recorded: dose-dependent, linear increases”. For the same compound, the absorption and bioavailability ([10]; oral) was “rapid absorption and high bioavailability”, the inhibition of proliferation [11] was “generally poor” and the “rate of PD” value (advanced solid tumours; 22/41) was 53.7%. The “patients with SD lasting >12 weeks” value (advanced solid tumours; all cohorts) was “five”, the “patients with best response of PD” value (advanced solid tumours; all cohorts) was “Twenty-two” and the “patients with best response of stable disease lasting at least 6 weeks” value (advanced solid tumours; all cohorts, 7 of 41 patients) was 17.1%. For the same compound, the “complete response or partial response” value (advanced solid tumours; all cohorts, N=41) was “No responses were observed; also recorded: No patients”, the “change in CTX or NTX level” value (Src [12]; 5 mg, single patient) was “No significant post-administration changes” and the “dose giving clear evidence of Src target inhibition / inhibition of bone turnover” value (Src [12]; CTX and NTX) was ≥ 20 mg per day. For the same compound, the “change in CTX and NTX” value (Src [12]; all cohorts other than 5 mg, by week 2, maintained to 7 weeks) was “a fall relative to baseline values in both CTX and NTX”, the “percentage reductions in CTX and NTX compared with 50 mg per day of saracatinib” value (Src [12]; doses of more than 10 mg per day, saracatinib data ref Hannon et al, 2012) was “Greater percentage reductions” and the inhibition of proliferation [13] was “inhibited proliferation”. The “selectivity for Src-Abl1 kinases vs CSK” value ([14]; ref Cancer Research UK Centre for Drug Development, 2015) was > 448 fold.
For `Cc1ccc(NC(=O)c2ccc(CN3CCN(C)CC3)cc2)cc1Nc1nccc(-c2cccnc2)n1` [imatinib], the “inhibition of cell motility” value (breast cancer cell) is given as “markedly inhibits cell motility”.
In the case of `COc1cc(Nc2c(C#N)cnc3cc(OCCCN4CCN(C)CC4)c(OC)cc23)c(Cl)cc1Cl` [bosutinib, reference compound], the “selectivity for SFKs over CSK” value ([14]; ref Davis et al, 2011) is given as ~30 fold.
For `CN1CCN(CCOc2cc(OC3CCOCC3)c3c(Nc4c(Cl)ccc5c4OCO5)ncnc3c2)CC1` [saracatinib], the “recommended phase II dose (RP2D)” value [15] is listed as 175 mg and the “rate of Grade 3 hypophosphataemia” value [16] is listed as 50%.
